Reference: ChEMBL document CHEMBL6153110, “Peptide Double-Stapling and Arginine N-Glycosylation Triggered the Development of Therapeutic Antimicrobial Peptides Capable of Killing Drug-Resistant Bacteria in Mice” (J Med Chem, 2025)
≈ marks a conversion by molar mass, not a printed value. Starred links: 1 amine or outer side, 2 acyl side, 3 side chain; linkers in the order of their positions; H or OH if unused. Non-standard residues stand in square brackets, D forms with d. Residues, ends and D or L forms follow the SMILES beside them. X1 = N=C(NCCC[C@H](N[*:1])C(=O)[*:2])N[C@@H]1O[C@H](CO)[C@@H](O[C@H]2O[C@H](CO)[C@@H](O[C@H]3O[C@H](CO)[C@@H](O)[C@H](O)[C@H]3O)[C@H](O)[C@H]2O)[C@H](O)[C@H]1O; Arg(Nω-βLac) = N=C(NCCC[C@H](N)C(=O)O)N[C@@H]1O[C@H](CO)[C@@H](O[C@@H]2O[C@H](CO)[C@H](O)[C@H](O)[C@H]2O)[C@H](O)[C@H]1O; X2 = CC(=O)N[C@@H]1[C@@H](O)[C@H](O)[C@@H](CO)O[C@H]1NC(=N)NCCC[C@H](N[*:1])C(=O)[*:2]

Assays:
Streptococcus pneumoniae = assay: Antimicrobial activity against Streptococcus pneumoniae ATCC 49619 assessed as growth inhibition measured after 8 hrs incubation by standard broth dilution assay; format: functional
Klebsiella pneumoniae = assay: Antimicrobial activity against Klebsiella pneumoniae ATCC 13883 assessed as growth inhibition measured after 8 hrs incubation by standard broth dilution assay; format: functional
[1] = Hemolytic activity in BALB/c mouse red blood cells assessed as hemolysis incubated for 1 hrs; format: toxicity, cell-based, Erythrocyte; settings: read-out: HD50
Staphylococcus aureus = assay: Antimicrobial activity against methicillin-resistant Staphylococcus aureus ATCC 43300 assessed as growth inhibition measured after 8 hrs incubation by standard broth dilution assay; format: functional
Pseudomonas aeruginosa = assay: Antimicrobial activity against Pseudomonas aeruginosa ATCC 27853 assessed as growth inhibition measured after 8 hrs incubation by standard broth dilution assay; format: functional

## CC(=O)N[C@@H](CC(C)C)C(=O)N[C@@H](CCCCN)C(=O)N[C@@H](CCCNC(=N)N[C@@H]1O[C@H](CO)[C@@H](O[C@@H]2O[C@H](CO)[C@H](O)[C@H](O)[C@H]2O)[C@H](O)[C@H]1O)C(=O)N[C@H](C(=O)N[C@@H](Cc1c[nH]c2ccccc12)C(=O)N[C@@H](CCCCN)C(=O)N[C@@H](CCCNC(=N)N)C(=O)N[C@H](C(=O)N[C@@H](Cc1ccccc1)C(=O)N[C@@H](CCCCN)C(=O)N[C@@H](CC(C)C)C(=O)N[C@@H](CC(C)C)C(=O)N[C@@H](CCCCN)C(=O)N[C@@H](CCCNC(=N)N)C(=O)N[C@@H](Cc1ccc(O)cc1)C(=O)N[C@@H](Cc1c[nH]c2ccccc12)C(=O)N[C@@H](CCCNC(=N)N)C(=O)N[C@@H](CCC(N)=O)C(=O)N[C@@H](CC(C)C)C(=O)N[C@@H](CCCCN)C(=O)N[C@@H](CCCCN)C(=O)N1CCC[C@H]1C(=O)N[C@H](C(=O)N[C@@H](CCCNC(=N)N)C(N)=O)C(C)C)C(C)C)C(C)C (Ac-LK[Arg(Nω-βLac)]VWKRVFKLLKRYWRQLKKPVR-NH2)
Streptococcus pneumoniae
  MIC: 9.9 µg/mL (≈ 2.76 µM)
Klebsiella pneumoniae
  MIC: 38 µg/mL (≈ 10.6 µM)
[1]
  HC50 at 1 h: 33.8 µg/mL
Staphylococcus aureus
  MIC: 4.9 µg/mL (≈ 1.36 µM)
Pseudomonas aeruginosa
  MIC: 5 µg/mL (≈ 1.39 µM)

## CC(=O)N[C@@H](CC(C)C)C(=O)N[C@@H](CCCCN)C(=O)N[C@@H](CCCNC(=N)N[C@@H]1O[C@H](CO)[C@@H](O[C@H]2O[C@H](CO)[C@@H](O[C@H]3O[C@H](CO)[C@@H](O)[C@H](O)[C@H]3O)[C@H](O)[C@H]2O)[C@H](O)[C@H]1O)C(=O)N[C@H](C(=O)N[C@@H](Cc1c[nH]c2ccccc12)C(=O)N[C@@H](CCCCN)C(=O)N[C@@H](CCCNC(=N)N)C(=O)N[C@H](C(=O)N[C@@H](Cc1ccccc1)C(=O)N[C@@H](CCCCN)C(=O)N[C@@H](CC(C)C)C(=O)N[C@@H](CC(C)C)C(=O)N[C@@H](CCCCN)C(=O)N[C@@H](CCCNC(=N)N)C(=O)N[C@@H](Cc1ccc(O)cc1)C(=O)N[C@@H](Cc1c[nH]c2ccccc12)C(=O)N[C@@H](CCCNC(=N)N)C(=O)N[C@@H](CCC(N)=O)C(=O)N[C@@H](CC(C)C)C(=O)N[C@@H](CCCCN)C(=O)N[C@@H](CCCCN)C(=O)N1CCC[C@H]1C(=O)N[C@H](C(=O)N[C@@H](CCCNC(=N)N)C(N)=O)C(C)C)C(C)C)C(C)C (Ac-LK[X1]VWKRVFKLLKRYWRQLKKPVR-NH2)
Streptococcus pneumoniae
  MIC: 16.9 µg/mL (≈ 4.5 µM)
Klebsiella pneumoniae
  MIC: 38 µg/mL (≈ 10.1 µM)
[1]
  HC50 at 1 h: 58.1 µg/mL
Staphylococcus aureus
  MIC: 2.5 µg/mL (≈ 0.666 µM)
Pseudomonas aeruginosa
  MIC: 5 µg/mL (≈ 1.33 µM)

## CC(=O)N[C@@H]1[C@@H](O)[C@H](O)[C@@H](CO)O[C@H]1NC(=N)NCCC[C@H](NC(=O)[C@H](CCCCN)NC(=O)[C@H](CC(C)C)NC(C)=O)C(=O)N[C@H](C(=O)N[C@@H](Cc1c[nH]c2ccccc12)C(=O)N[C@@H](CCCCN)C(=O)N[C@@H](CCCNC(=N)N)C(=O)N[C@H](C(=O)N[C@@H](Cc1ccccc1)C(=O)N[C@@H](CCCCN)C(=O)N[C@@H](CC(C)C)C(=O)N[C@@H](CC(C)C)C(=O)N[C@@H](CCCCN)C(=O)N[C@@H](CCCNC(=N)N)C(=O)N[C@@H](Cc1ccc(O)cc1)C(=O)N[C@@H](Cc1c[nH]c2ccccc12)C(=O)N[C@@H](CCCNC(=N)N)C(=O)N[C@@H](CCC(N)=O)C(=O)N[C@@H](CC(C)C)C(=O)N[C@@H](CCCCN)C(=O)N[C@@H](CCCCN)C(=O)N1CCC[C@H]1C(=O)N[C@H](C(=O)N[C@@H](CCCNC(=N)N)C(N)=O)C(C)C)C(C)C)C(C)C (Ac-LK[X2]VWKRVFKLLKRYWRQLKKPVR-NH2)
Streptococcus pneumoniae
  MIC: 9.9 µg/mL (≈ 2.85 µM)
Klebsiella pneumoniae
  MIC: 38 µg/mL (≈ 10.9 µM)
[1]
  HC50 at 1 h: 45.2 µg/mL
Staphylococcus aureus
  MIC: 2.5 µg/mL (≈ 0.72 µM)
Pseudomonas aeruginosa
  MIC: 5 µg/mL (≈ 1.44 µM)
